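How tested: cells in 96-well plates exposed to compound for 48 hours at five concentrations. GI50 = concentration required for 50% inhibition of growth.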 Calls of active or inactive are those of the source. Rule as the data show it: active = GI50 up to about 1.1 µM and inactive = higher.
Assays:
Assay in all cases: growth of human tumour cells (NCI), 48 h
HT-29 = test system: HT-29
Hs-578T = test system: Hs-578T
A498 = test system: A498
OVCAR-3 = test system: OVCAR-3
NCI-H23 = test system: NCI-H23
MDA-MB-435 = test system: MDA-MB-435
HCC 2998 = test system: HCC 2998
UACC-257 = test system: UACC-257
COLO 205 = test system: COLO 205
K562 = test system: K562
NCI-H522 = test system: NCI-H522
SNB-19 = test system: SNB-19
A549 = test system: A549
PC-3 = test system: PC-3
DU-145 = test system: DU-145
NCI-H460 = test system: NCI-H460
IGROV-1 = test system: IGROV-1
UO-31 = test system: UO-31
OVCAR-4 = test system: OVCAR-4

SMILES	GI50 (HT-29)	GI50 (Hs-578T)	GI50 (A498)	GI50 (OVCAR-3)	GI50 (NCI-H23)	GI50 (MDA-MB-435)	GI50 (HCC 2998)	GI50 (UACC-257)	GI50 (COLO 205)	GI50 (K562)	GI50 (NCI-H522)	GI50 (SNB-19)	GI50 (A549)	GI50 (PC-3)	GI50 (DU-145)	GI50 (NCI-H460)	GI50 (IGROV-1)	GI50 (UO-31)	GI50 (OVCAR-4)
CSCCCNC(=O)c1csc(-c2csc(CCNC(=O)CNC(=O)CNC(=O)CNC(=O)OC(C)(C)C)n2)n1	> 100 µM (inactive)	> 100 µM (inactive)	> 100 µM (inactive)	> 100 µM (inactive)	> 100 µM (inactive)	> 100 µM (inactive)	> 100 µM (inactive)	> 100 µM (inactive)	> 100 µM (inactive)	> 100 µM (inactive)	> 100 µM (inactive)	> 100 µM (inactive)	> 100 µM (inactive)	> 100 µM (inactive)	> 100 µM (inactive)	> 100 µM (inactive)	> 100 µM (inactive)	> 100 µM (inactive)	> 100 µM (inactive)
O=Cc1ccc(-c2nccc3c2[nH]c2ccccc23)o1	> 88.1 µM (inactive)	19.4 µM (inactive)	0.585 µM (active)	> 75.7 µM (inactive)	> 100 µM (inactive)	> 100 µM (inactive)	> 91.6 µM (inactive)	24.5 µM (inactive)	> 100 µM (inactive)	> 100 µM (inactive)	64.4 µM (inactive)	> 100 µM (inactive)	73.1 µM (inactive)	98.2 µM (inactive)	> 100 µM (inactive)	38.9 µM (inactive)	> 73.3 µM (inactive)	> 100 µM (inactive)	89.5 µM (inactive)
Brc1ccc2c(-c3nc(-c4c[nH]c5ccc(Br)cc45)cs3)c[nH]c2c1	1.86 µM (inactive)	7.21 µM (inactive)	2.41 µM (inactive)	10.2 µM (inactive)	3.24 µM (inactive)	5.26 µM (inactive)	2.48 µM (inactive)	8.75 µM (inactive)	2.54 µM (inactive)	3.44 µM (inactive)	1.95 µM (inactive)	4.25 µM (inactive)	4.14 µM (inactive)	6 µM (inactive)	5.77 µM (inactive)	2.68 µM (inactive)	2.99 µM (inactive)	4.1 µM (inactive)	9.33 µM (inactive)
Nc1ccc2c(c1)S(=O)(=O)c1cc(N)ccc1-2	> 100 µM (inactive)	> 100 µM (inactive)	> 100 µM (inactive)	> 100 µM (inactive)	> 100 µM (inactive)	> 100 µM (inactive)	> 100 µM (inactive)	> 100 µM (inactive)	> 100 µM (inactive)	> 100 µM (inactive)	> 100 µM (inactive)	> 100 µM (inactive)	> 100 µM (inactive)	> 100 µM (inactive)	> 100 µM (inactive)	> 100 µM (inactive)	> 100 µM (inactive)	> 100 µM (inactive)	> 100 µM (inactive)
COC(=O)c1ccc(NCc2cc(O)c3ccccc3c2O)cc1	18.7 µM (inactive)	37.7 µM (inactive)	19.8 µM (inactive)	14.9 µM (inactive)	6.65 µM (inactive)	2.11 µM (inactive)	21.9 µM (inactive)	7.87 µM (inactive)	5.06 µM (inactive)	2.59 µM (inactive)	16.1 µM (inactive)	22.2 µM (inactive)	10.8 µM (inactive)	17.2 µM (inactive)	15.8 µM (inactive)	7.31 µM (inactive)	11.4 µM (inactive)	13.1 µM (inactive)	12.4 µM (inactive)
Cc1ccc(-c2ccc3c(c2)Sc2ccccc2O3)n1C	0.213 µM (active)	0.604 µM (active)	0.416 µM (active)	0.373 µM (active)	0.908 µM (active)	0.0263 µM (active)	0.171 µM (active)	19.5 µM (inactive)	0.232 µM (active)	0.137 µM (active)	0.0564 µM (active)	0.607 µM (active)	0.675 µM (active)	0.348 µM (active)	1.13 µM (inactive)	0.327 µM (active)	0.232 µM (active)	0.67 µM (active)	1.32 µM (inactive)
NNC(=O)CCCCCCCC(=O)O	> 100 µM (inactive)	> 100 µM (inactive)	> 100 µM (inactive)	> 100 µM (inactive)	> 100 µM (inactive)	> 100 µM (inactive)	> 100 µM (inactive)	> 100 µM (inactive)	> 100 µM (inactive)	> 100 µM (inactive)	> 100 µM (inactive)	> 100 µM (inactive)	> 100 µM (inactive)	> 100 µM (inactive)	> 100 µM (inactive)	> 100 µM (inactive)	> 100 µM (inactive)	> 100 µM (inactive)	> 100 µM (inactive)

From ChEMBL document CHEMBL1201862, “PubChem BioAssay data set” (2004)
